Patent publication US8729113B2 (Hoffmann-La Roche Inc., priority 2008, dated 2014)

Molecular target: T1, TAAR1 (Mus musculus (Mouse), UniProt Q923Y8)
Test: Radioligand binding assay on TAAR1 (membranes of stably transfected HEK293 cells)
Details: competition with [3H]-rac-2-(1,2,3,4-tetrahydro-1-naphthyl)-2-imidazoline, 4° C., 30 min
Experimental: For the construction of expression plasmids the coding sequences of human, rat and mouse TAAR 1 were amplified from genomic DNA essentially as described by Lindemann et al.. The Expand High Fidelity PCR System (Roche Diagnostics) was used with 1.5 mM Mg^2+ and purified PCR products were cloned into pCR2.1—TOPO cloning vector (Invitrogen) following the instructions of the manufacturer. PCR products were subcloned into the pIRESneo2 vector (BD Clontech, Palo Alto, Calif.), and expression vectors were sequence verified before introduction in cell lines.
HEK293 cells (ATCC # CRL-1573) were cultured essentially as described Lindemann et al. (2005). For the generation of stably transfected cell lines HEK293 cells were transfected with the pIRESneo2 expression plasmids containing the TAAR coding sequences (described above) with Lipofectamine 2000 (Invitrogen) according to the instructions of the manufacturer, and 24 hrs post transfection the culture medium was supplemented with 1 mg/ml G418 (Sigma, Buchs, Switzerland). After a culture period of about 10 d clones were isolated, expanded and tested for responsiveness to trace amines (all compounds purchased from Sigma) with the cAMP Biotrak Enzyme immunoassay (EIA) System (Amersham) following the non-acetylation EIA procedure provided by the manufacturer. […] Membrane Preparation and Radioligand Binding
(§1) Cells at confluence were rinsed with ice-cold phosphate buffered saline without Ca^2+ and Mg^2+ containing 10 mM EDTA and pelleted by centrifugation at 1000 rpm for 5 min at 4° C. The pellet was then washed twice with ice-cold phosphate buffered saline and cell pellet was frozen immediately by immersion in liquid nitrogen and stored until use at −80° C. Cell pellet was then suspended in 20 ml HEPES-NaOH (20 mM), pH 7.4 containing 10 mM EDTA, and homogenized with a Polytron (PT 3000, Kinematica) at 10,000 rpm for 10 s. The homogenate was centrifuged at 48,000×g for 30 min at 4° C. and the pellet resuspended in 20 ml HEPES-NaOH (20 mM), pH 7.4 containing 0.1 mM EDTA (buffer A), and homogenized with a Polytron at 10,000 rpm for 10 s. The homogenate was then centrifuged at 48,000×g for 30 min at 4° C. and the pellet resuspended in 20 ml buffer A, and homogenized with a Polytron at 10,000 rpm for 10 s. Protein concentration was determined by the method of Pierce (Rockford, Ill.). The homogenate was then centrifuged at 48,000×g for 10 min at 4° C., resuspended in HEPES-NaOH (20 mM), pH 7.0 including MgCl2 (10 mM) and CaCl2 g protein per ml and (2 mM) (buffer B) at 200 homogenized with a Polytron at 10,000 rpm for 10 s.
Binding assay was performed at 4° C. in a final volume of 1 ml, and with an incubation time of 30 min. The radioligand [^3H]-rac-2-(1,2,3,4-tetrahydro-1-naphthyl)-2-imidazoline was used at a concentration equal to the calculated Kd value of 60 nM to give a bound at around 0.1% of the total added radioligand concentration, and a specific binding which represented approximately 70-80% of the total binding. Non-specific binding was defined as the amount of [^3H]-rac-2-(1,2,3,4-tetrahydro-1-naphthyl)-2-imidazoline bound in the presence of the appropriate unlabelled ligand (10 μM). Competing ligands were tested in a wide range of concentrations […]. […] Each experiment was performed in duplicate. All incubations were terminated by rapid filtration through UniFilter-96 plates (Packard Instrument Company) and glass filter GF/C, pre-soaked for at least 2 h in polyethylenimine 0.3%, and using a Filtermate 96 Cell Harvester (Packard Instrument Company). The tubes and filters were then washed 3 times with 1 ml aliquots of cold buffer B. Filters were not dried and soaked in Ultima gold (45 μl/well, Packard Instrument Company) and bound radioactivity was counted by a TopCount Microplate Scintillation Counter (Packard Instrument Company).

T1 sequence (Q923Y8 whole entry): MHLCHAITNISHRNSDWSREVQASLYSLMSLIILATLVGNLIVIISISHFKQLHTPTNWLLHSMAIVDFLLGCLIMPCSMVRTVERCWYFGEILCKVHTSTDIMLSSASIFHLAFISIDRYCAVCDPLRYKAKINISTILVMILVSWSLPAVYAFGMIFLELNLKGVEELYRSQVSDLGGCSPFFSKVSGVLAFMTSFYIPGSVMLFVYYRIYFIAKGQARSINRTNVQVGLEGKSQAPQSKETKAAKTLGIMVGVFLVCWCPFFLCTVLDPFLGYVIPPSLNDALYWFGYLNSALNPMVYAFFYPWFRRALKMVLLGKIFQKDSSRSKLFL

Row | Ki | Structure (SMILES)
1 | 0.0056 µM | CCC(CC[C@H]1COC(N)=N1)c1ccccc1 (stereo partly drawn) [Example 14, (4S)-4-(3-Phenyl-pentyl)-4,5-dihydro-oxazol-2-ylamine]
2 | 0.0073 µM | CC(CC[C@H]1COC(N)=N1)c1ccccc1 (stereo partly drawn) [Example 13, (4S)-4-(3-Phenyl-butyl)-4,5-dihydro-oxazol-2-ylamine]
3 | 0.0007 µM | NC1=N[C@@H](CCOc2cc(F)cc(F)c2)CO1 [Example 130, (S)-4-[2-(3,5-Difluoro-phenoxy)-ethyl]-4,5-dihydro-oxazol-2-ylamine]
4 | 0.0038 µM | CC[C@@H](C[C@H]1COC(N)=N1)Oc1ccc(C(F)(F)F)cc1 [Example 121, (S)-4-[(S)-2-(4-Trifluoromethyl-phenoxy)-butyl]-4,5-dihydro-oxazol-2-ylamine]
5 | 0.0048 µM | NC1=N[C@@H](CCOc2ccc(C(F)(F)F)cc2)CO1 [Example 88, (S)-4-[2-(4-Trifluoromethyl-phenoxy)-ethyl]-4,5-dihydro-oxazol-2-ylamine]
6 | 0.0025 µM | COc1cccc(OCC[C@H]2COC(N)=N2)c1 [Example 20, (S)-4-[2-(3-Methoxy-phenoxy)-ethyl]-4,5-dihydro-oxazol-2-ylamine]
7 | 0.0017 µM | NC1=N[C@@H](CCOc2ccccc2)CO1 [Example 1, (S)-4-(2-Phenoxy-ethyl)-4,5-dihydro-oxazol-2-ylamine]
8 | 0.0009 µM | NC1=N[C@@H](CCC2(c3cc(F)cc(Cl)c3)CC2)CO1 [Example 143, (S)-4-{2-[1-(3-Chloro-5-fluoro-phenyl)-cyclopropyl]-ethyl}-4,5-dihydro-oxazol-2-ylamine]
9 | 0.0012 µM | CC(CC[C@H]1COC(N)=N1)c1ccc(F)cc1 (stereo partly drawn) [Example 17, (4S)-4-[3-(4-Fluoro-phenyl)-butyl]-4,5-dihydro-oxazol-2-ylamine]
10 | 0.0059 µM | NC1=N[C@@H](CCC2(c3ccc(Cl)cc3)CCC2)CO1 [Example 110, (S)-4-{2-[1-(4-Chloro-phenyl)-cyclobutyl]-ethyl}-4,5-dihydro-oxazol-2-ylamine]
11 | 0.0004 µM | NC1=N[C@@H](CCC2(c3ccc(Cl)cc3)CC2)CO1 [Example 30, (S)-4-{2-[1-(4-Chloro-phenyl)-cyclopropyl]-ethyl}-4,5-dihydro-oxazol-2-ylamine]
12 | 0.0021 µM | NC1=N[C@@H](CCOc2cccc(OC(F)(F)F)c2)CO1 [Example 19, (S)-4-[2-(3-Trifluoromethoxy-phenoxy)-ethyl]-4,5-dihydro-oxazol-2-ylamine]
13 | 0.001 µM | CCC(CC[C@H]1COC(N)=N1)c1cc(F)cc(F)c1 (stereo partly drawn) [Example 124, (4S)-4-[3-(3,5-Difluoro-phenyl)-pentyl]-4,5-dihydro-oxazol-2-ylamine]

Row | Structure (SMILES) | Ki
14 | NC1=N[C@@H](CCC2(c3ccc(F)c(F)c3)CC2)CO1 [Example 108, (S)-4-{2-[1-(3,4-Difluoro-phenyl)-cyclopropyl]-ethyl}-4,5-dihydro-oxazol-2-ylamine] | 0.0014 µM
15 | CC[C@@H](C[C@H]1COC(N)=N1)Oc1ccc(Br)cc1 [Example 111, (S)-4-[(S)-2-(4-Bromo-phenoxy)-butyl]-4,5-dihydro-oxazol-2-ylamine] | 0.001 µM
16 | C[Si](C)(CC[C@H]1COC(N)=N1)c1ccc(Cl)cc1 [Example 67, (S)-4-{2-[(4-Chloro-phenyl)-dimethyl-silanyl]-ethyl}-4,5-dihydro-oxazol-2-ylamine] | 0.0046 µM
17 | NC1=N[C@@H](CC2CC2c2ccccc2)CO1 (stereo partly drawn) [Example 23, (4S)-4-(2-Phenyl-cyclopropylmethyl)-4,5-dihydro-oxazol-2-ylamine] | 0.0031 µM
18 | C[Si](C)(CC[C@H]1COC(N)=N1)c1cccc(Cl)c1 [Example 61, (S)-4-{2-[(3-Chloro-phenyl)-dimethyl-silanyl]-ethyl}-4,5-dihydro-oxazol-2-ylamine] | 0.0055 µM
19 | NC1=N[C@@H](CCOc2ccc(Cl)c(F)c2)CO1 [Example 54, (S)-4-[2-(4-Chloro-3-fluoro-phenoxy)-ethyl]-4,5-dihydro-oxazol-2-ylamine] | 0.0014 µM
20 | NC1=N[C@@H](CCC2(c3ccc(F)cc3)CC2)CO1 [Example 60, (S)-4-{2-[1-(4-Fluoro-phenyl)-cyclopropyl]-ethyl}-4,5-dihydro-oxazol-2-ylamine] | 0.0025 µM

Molecular target: T1, TAAR1
Test: Radioligand binding assay on TAAR1: Kd of the radioligand
Details: binding assay at 4° C.; species of TAAR1 not stated; read-out: calculated Kd value of the radioligand
Experimental: as §1, with “The homogenate was then centrifuged at 48,000×g for 10 min at 4° C., resuspended in HEPES-NaOH (20 mM), pH 7.0 including MgCl2 (10 mM) and CaCl2 g protein per ml and (2 mM) (buffer B) at 200 homogenized with a Polytron at 10,000 rpm for 10 s.” left out
Binding assay was performed at 4° C. in a final volume of 1 ml, and with an incubation time of 30 min. […] The tubes and filters were then washed 3 times with 1 ml aliquots of cold buffer B. Filters were not dried and soaked in Ultima gold (45 μl/well, Packard Instrument Company) and bound radioactivity was counted by a TopCount Microplate Scintillation Counter (Packard Instrument Company).

Row | Structure (SMILES) | Kd
21 | c1ccc2c(c1)CCCC2C1=NCCN1 (racemic) [[^3H]-rac-2-(1,2,3,4-tetrahydro-1-naphthyl)-2-imidazoline] | 60 nM
